# Data reported in patent publication US7037644B1, “Means and methods for monitoring non-nucleoside reverse transcriptase inhibitor antiretroviral therapy and guiding therapeutic decisions in the treatment of HIV/AIDS” (ViroLogic, Inc., priority 1998, dated 2006).
# Values joined by “and” are separate entries in the source; they are usually repeats but may differ in a detail not shown here. Equal values may be shown once. “Also recorded” adds a separate entry of the source.
# Test system: RTV-B clone 1 (RT A98G, G190S)
# Assay: Phenotypic susceptibility assay (patient RTV)
# Type: cell-based, HIV-1
# Settings: below 1 = increased susceptibility
# From the text: (§1) The resistance test vectors containing a functional luciferase gene cassette were constructed and host cells were transfected with the resistance test vector DNA. The resistant test vectors contained patient-derived reverse transcriptase and protease sequences that were either susceptible or resistant to the antiretroviral agents, such as nucleoside reverse transcriptase inhibitors, non-nucleoside reverse transcriptase inhibitors and protease inhibitors. The resistance test vector viral particles produced by transfecting the resistance test vector DNA into host cells, either in the presence or absence of protease inhibitors, were used to infect target host cells grown either in the absence of NRTI or NNRTI or in the presence of increasing concentrations of the drug. The amount of luciferase activity produced in infected target host cells in the presence of drug was compared to the amount of luciferase produced in infected target host cells in the absence of drug. […] The IC50 values were determined by plotting percent drug inhibition vs. log10 drug concentration.
# (§2) Host cells were seeded in 10-cm-diameter dishes and were transfected several days after plating with resistance test vector plasmid DNA and the envelope expression vector. […] HIV capsid protein (p24) levels in the harvested cell culture media were determined by an EIA method as described by the manufacturer (SIAC; Frederick, Md.). […] The inhibitory effect of the drug was determined using the following equation: % luciferase inhibition=1−(RLUluc [drug]÷RLUluc)×100 where RLUluc [drug] is the relative light unit of luciferase activity in infected cells in the presence of drug and RLUluc is the Relative Light Unit of luciferase activity in infected cells in the absence of drug. […]
# A resistant test vector was constructed as described in Example 1 from a patient sample designated B. The anti-retroviral treatment this patient received is unknown. […] An IC50 was determined for the resistance test vector clone for each drug tested. […]
row,Structure (SMILES),"change in susceptibility (fold, IC50) [fold]"
1,CC(C)Nc1cccnc1N1CCN(C(=O)c2cc3cc(NS(C)(=O)=O)ccc3[nH]2)CC1 [delavirdine],0.55
2,O=C1Nc2ccc(Cl)cc2[C@@](C#CC2CC2)(C(F)(F)F)O1 [efavirenz],250
3,Cc1ccnc2c1NC(=O)c1cccnc1N2C1CC1 [nevirapine],640

# Test system: V106A-F227-RTV
# Assay: Phenotypic susceptibility assay (site directed mutant RTV)
# Type: cell-based, HIV-1
# Settings: V106A and F227L
# From the text: (§3) The resistance test vectors containing a functional luciferase gene cassette were constructed and host cells were transfected with the resistance test vector DNA. The resistant test vectors contained patient-derived reverse transcriptase and protease sequences that were either susceptible or resistant to the antiretroviral agents, such as nucleoside reverse transcriptase inhibitors, non-nucleoside reverse transcriptase inhibitors and protease inhibitors. The resistance test vector viral particles produced by transfecting the resistance test vector DNA into host cells, either in the presence or absence of protease inhibitors, were used to infect target host cells grown either in the absence of NRTI or NNRTI or in the presence of increasing concentrations of the drug. The amount of luciferase activity produced in infected target host cells in the presence of drug was compared to the amount of luciferase produced in infected target host cells in the absence of drug. Drug resistance was measured as the amount of drug required to inhibit by 50% the luciferase activity detected in the absence of drug (inhibitory concentration 50%, IC50). The IC50 values were determined by plotting percent drug inhibition vs. log10 drug concentration.
# (§4) Host cells were seeded in 10-cm-diameter dishes and were transfected several days after plating with resistance test vector plasmid DNA and the envelope expression vector. Transfections were performed using a calcium-phosphate precipitation procedure. The cell culture media containing the DNA precipitate was replaced with fresh medium, from one to 24 hours, after transfection. Cell culture media containing resistance test vector viral particles was harvested one to four days after transfection and was passed through a […] filter before being stored at […]. HIV capsid protein (p24) levels in the harvested cell culture media were determined by an EIA method as described by the manufacturer (SIAC; Frederick, Md.). Before infection, target cells (293 and 293/T) were plated in cell culture media. Control infections were performed using cell culture media from mock transfections (no DNA) or transfections containing the resistance test vector plasmid DNA without the envelope expression plasmid. One to three or more days after infection the media was removed and cell lysis buffer (Promega) was added to each well. Cell lysates were assayed for luciferase activity (FIG. 3). The inhibitory effect of the drug was determined using the following equation: % luciferase inhibition=1−(RLUluc [drug]÷RLUluc)×100 where RLUluc [drug] is the relative light unit of luciferase activity in infected cells in the presence of drug and RLUluc is the Relative Light Unit of luciferase activity in infected cells in the absence of drug. IC50 values were obtained from the sigmoidal curves that were generated from the data by plotting the percent inhibition of luciferase activity vs. the log10 drug concentration. The drug inhibition curves are shown in (FIG. 3).
# (§5) The mutations V106A, V189L, V181C an F227L were introduced alone and in combination into resistance test vectors using the mega-primer method for site-directed mutagenesis (Sakar and Sommar, Ibid.). Resistance test vectors containing the V106A mutation (V106A-RTV), the V189L mutation (V189L-RTV), the V181C mutation (V181C-RTV) and E227L mutation (F2271-RTV) and two mutations (V106A-Y181C-RTV) and (V106A-V189L-RTV) and (V106A-F227-RTV) and (V181C-F227-RTV) and three mutations, (V106A-Y181C-F227L-RTV) were then tested using the phenotypic assay described earlier and the results were compared to those determined using a genetically defined resistance test vector that was wild type at positions 106, 189, 181 and 227. We determined the pattern of phenotypic susceptibility to the NNRTIs, delavirdine, nevirapine and efavirenz, in all nine vectors.
row,Structure (SMILES),"loss of susceptibility (fold, IC50) vs wild type control RTV"
1,CC(C)Nc1cccnc1N1CCN(C(=O)c2cc3cc(NS(C)(=O)=O)ccc3[nH]2)CC1 [delavirdine],3 fold
2,O=C1Nc2ccc(Cl)cc2[C@@](C#CC2CC2)(C(F)(F)F)O1 [efavirenz],8 fold
3,Cc1ccnc2c1NC(=O)c1cccnc1N2C1CC1 [nevirapine],greater than 800 fold

# Same assay, conditions: mutations at 106 and 227
row,Structure (SMILES),change in susceptibility
1,CC(C)Nc1cccnc1N1CCN(C(=O)c2cc3cc(NS(C)(=O)=O)ccc3[nH]2)CC1 [delavirdine],slight decrease
2,O=C1Nc2ccc(Cl)cc2[C@@](C#CC2CC2)(C(F)(F)F)O1 [efavirenz],slight decrease
3,Cc1ccnc2c1NC(=O)c1cccnc1N2C1CC1 [nevirapine],substantial decrease

# Test system: V106A-Y181C-RTV
# Assay: as above
# Type: cell-based, HIV-1
# Settings: V106A and Y181C
# From the text: as §3, §4, §5
row,Structure (SMILES),"loss of susceptibility (fold, IC50) vs wild type control RTV"
1,CC(C)Nc1cccnc1N1CCN(C(=O)c2cc3cc(NS(C)(=O)=O)ccc3[nH]2)CC1 [delavirdine],100 fold
2,O=C1Nc2ccc(Cl)cc2[C@@](C#CC2CC2)(C(F)(F)F)O1 [efavirenz],4 fold
3,Cc1ccnc2c1NC(=O)c1cccnc1N2C1CC1 [nevirapine],greater than 800 fold

# Same assay, conditions: mutations at 106 and 181
row,Structure (SMILES),change in susceptibility
1,CC(C)Nc1cccnc1N1CCN(C(=O)c2cc3cc(NS(C)(=O)=O)ccc3[nH]2)CC1 [delavirdine],significant decrease
2,O=C1Nc2ccc(Cl)cc2[C@@](C#CC2CC2)(C(F)(F)F)O1 [efavirenz],slight decrease
3,Cc1ccnc2c1NC(=O)c1cccnc1N2C1CC1 [nevirapine],substantial decrease

# Test system: V106A-Y181C-F227L-RTV
# Assay: as above
# Type: cell-based, HIV-1
# Settings: V106A, Y181C and F227L
# From the text: as §3, §4, §5
row,Structure (SMILES),"loss of susceptibility (fold, IC50) vs wild type control RTV"
1,CC(C)Nc1cccnc1N1CCN(C(=O)c2cc3cc(NS(C)(=O)=O)ccc3[nH]2)CC1 [delavirdine],50 fold
2,O=C1Nc2ccc(Cl)cc2[C@@](C#CC2CC2)(C(F)(F)F)O1 [efavirenz],12 fold
3,Cc1ccnc2c1NC(=O)c1cccnc1N2C1CC1 [nevirapine],greater than 800 fold

# Same assay, conditions: mutations at 106 and 181 and 227
row,Structure (SMILES),change in susceptibility
1,CC(C)Nc1cccnc1N1CCN(C(=O)c2cc3cc(NS(C)(=O)=O)ccc3[nH]2)CC1 [delavirdine],moderate decrease
2,O=C1Nc2ccc(Cl)cc2[C@@](C#CC2CC2)(C(F)(F)F)O1 [efavirenz],slight decrease
3,Cc1ccnc2c1NC(=O)c1cccnc1N2C1CC1 [nevirapine],substantial decrease

# Test system: V106A-V189L-RTV
# Assay: as above
# Type: cell-based, HIV-1
# Settings: V106A and V189L
# From the text: as §3, §4, §5
row,Structure (SMILES),"change in susceptibility (fold, IC50) vs wild type control RTV [fold]"
1,CC(C)Nc1cccnc1N1CCN(C(=O)c2cc3cc(NS(C)(=O)=O)ccc3[nH]2)CC1 [delavirdine],3
2,O=C1Nc2ccc(Cl)cc2[C@@](C#CC2CC2)(C(F)(F)F)O1 [efavirenz],1
3,Cc1ccnc2c1NC(=O)c1cccnc1N2C1CC1 [nevirapine],50

# Same assay, conditions: mutations at 106 and 189
row,Structure (SMILES),change in susceptibility
1,CC(C)Nc1cccnc1N1CCN(C(=O)c2cc3cc(NS(C)(=O)=O)ccc3[nH]2)CC1 [delavirdine],slight decrease; also recorded: alight decrease
2,O=C1Nc2ccc(Cl)cc2[C@@](C#CC2CC2)(C(F)(F)F)O1 [efavirenz],no change
3,Cc1ccnc2c1NC(=O)c1cccnc1N2C1CC1 [nevirapine],moderate decrease

# Test system: F227L-RTV
# Assay: as above
# Type: cell-based, HIV-1
# Settings: F227L alone; below 1 = increased susceptibility
# From the text: as §3, §4, §5
row,Structure (SMILES),"change in susceptibility (fold, IC50) vs wild type control RTV"
1,CC(C)Nc1cccnc1N1CCN(C(=O)c2cc3cc(NS(C)(=O)=O)ccc3[nH]2)CC1 [delavirdine],0.03 fold
2,O=C1Nc2ccc(Cl)cc2[C@@](C#CC2CC2)(C(F)(F)F)O1 [efavirenz],0.48 fold and 0.4 fold
3,Cc1ccnc2c1NC(=O)c1cccnc1N2C1CC1 [nevirapine],3 fold

# Test system: Y181C-F227L-RTV
# Assay: as above
# Type: cell-based, HIV-1
# Settings: Y181C and F227L; below 1 = increased susceptibility
# From the text: as §3, §4, §5
row,Structure (SMILES),"change in susceptibility (fold, IC50) vs wild type control RTV [fold]"
1,CC(C)Nc1cccnc1N1CCN(C(=O)c2cc3cc(NS(C)(=O)=O)ccc3[nH]2)CC1 [delavirdine],0.89
2,O=C1Nc2ccc(Cl)cc2[C@@](C#CC2CC2)(C(F)(F)F)O1 [efavirenz],0.99
3,Cc1ccnc2c1NC(=O)c1cccnc1N2C1CC1 [nevirapine],285

# Same assay, conditions: mutations at 181 and 227
row,Structure (SMILES),change in susceptibility
1,CC(C)Nc1cccnc1N1CCN(C(=O)c2cc3cc(NS(C)(=O)=O)ccc3[nH]2)CC1 [delavirdine],increase
2,O=C1Nc2ccc(Cl)cc2[C@@](C#CC2CC2)(C(F)(F)F)O1 [efavirenz],increase
3,Cc1ccnc2c1NC(=O)c1cccnc1N2C1CC1 [nevirapine],significant decrease

# Test system: V106A-RTV
# Assay: as above
# Type: cell-based, HIV-1
# Settings: V106A alone
# From the text: as §3, §4, §5
row,Structure (SMILES),"change in susceptibility (fold, IC50) vs wild type control RTV [fold]"
1,CC(C)Nc1cccnc1N1CCN(C(=O)c2cc3cc(NS(C)(=O)=O)ccc3[nH]2)CC1 [delavirdine],5
2,O=C1Nc2ccc(Cl)cc2[C@@](C#CC2CC2)(C(F)(F)F)O1 [efavirenz],1.7
3,Cc1ccnc2c1NC(=O)c1cccnc1N2C1CC1 [nevirapine],60

# Test system: V189L-RTV
# Assay: as above
# Type: cell-based, HIV-1
# Settings: V189L alone
# From the text: as §3, §4, §5
row,Structure (SMILES),"change in susceptibility (fold, IC50) vs wild type control RTV [fold]"
1,CC(C)Nc1cccnc1N1CCN(C(=O)c2cc3cc(NS(C)(=O)=O)ccc3[nH]2)CC1 [delavirdine],1.8
2,O=C1Nc2ccc(Cl)cc2[C@@](C#CC2CC2)(C(F)(F)F)O1 [efavirenz],1.3
3,Cc1ccnc2c1NC(=O)c1cccnc1N2C1CC1 [nevirapine],1.3

# Test system: RTV-1060, patient 98-1060 (RT K101E, G190S)
# Assay: Phenotypic susceptibility assay (patient RTV)
# Type: cell-based, HIV-1
# Settings: patient RTV pool
# From the text: as §1, §2
# A resistance test vector was constructed as described in Example 1 from a patient sample designated 98-644. […] RTV-644 and RTV-1060 were then tested in a phenotypic, assay to determine accurately and quantitatively the level of susceptibility to a panel of anti-retroviral drugs. […]
row,Structure (SMILES),"decrease in susceptibility (fold, IC50)"
1,CC(C)Nc1cccnc1N1CCN(C(=O)c2cc3cc(NS(C)(=O)=O)ccc3[nH]2)CC1 [delavirdine],1.5 fold
2,O=C1Nc2ccc(Cl)cc2[C@@](C#CC2CC2)(C(F)(F)F)O1 [efavirenz],900 fold
3,Cc1ccnc2c1NC(=O)c1cccnc1N2C1CC1 [nevirapine],greater than 800 fold
